Experimental data taken from patent US20260365671A1, “HETEROCYCLIC COMPOUND” (Takeda Pharmaceutical Company Limited, priority 2022, published 2026).

Legend:
[1] = biological target: T1, NLRP3 inflammasome (Homo sapiens, UniProt Q96P20); assay: IL-1β TR-FRET assay (THP-1 cells differentiated to macrophages with IFN-γ, LPS primed, ATP activated; HTRF); assay type: cell-based; settings: THP-1 macrophages, 50 ng/mL LPS priming, compound 30 min, 20 mM ATP 2 hours
T1 construct: IL-1beta HTRF
Experimental: (§1) The biological activity of Compound (I) with respect to NLRP3 was determined using the following in vitro methods.
IL-1β TR-FRET Assay (Reported as IC50)
Monocytic THP-1 cells (ATCC: TIB-202) were maintained in accordance with the provider's instructions in RPMI media (Life Technologies, Cat #A10491-01); RPMI was supplemented with 10% heat inactivated fetal bovine serum (Corning, Cat #35-010-CV). The cells were differentiated into macrophages by the addition of 25 ng/mL IFN-γ (PeproTech, Cat #AF300-02-100UG) for 24 hours at 37 °C/5% CO2. Media was exchanged with fresh media with no FBS, and the cells were treated with 50 ng/mL LPS (priming step) (LPS-EK: Invivogen, Cat #tlrl-peklps). The cells were plated at 240,000 cells per well in 384-well flat-bottom cell culture plates (FALCON, Cat #353962) and were incubated for 24 hours at 37 °C/5% CO2. Compounds were serially diluted (half log dilutions) with DMSO and were finally diluted with Media with no FBS. The compounds were added to the cells in 384-well plates (added in 1:3) and then the plates were incubated for 30 minutes at 37 °C/5% CO2. The NLRP3 inflammasome was activated with the addition of 20 mM ATP (Sigma Cat #A3377-25G) and the cells were incubated for 2 hours at 37 °C/5% CO2. At the end of the incubation period, 30 μL supernatant was transferred to another 384-well plate and mixed on a plate shaker for 1 minutes. The supernatant was mixed with HTRF Antibody (Human IL1 beta kit, Cisbio, 62HIL1BPEH) in assay plates (Greiner Bio-One, Cat #784075) and the assay plates were incubated in shading box at room temperature for 16-24 hours. HTRF signal was measured by EnVision (Perkinelmer) in accordance with the manufacturer's instructions.
(§2) The IC50 values were calculated from a plot of percentage of inhibition versus the inhibitor concentration by a logistics curve fit according to: Y=[Bottom+(Top−Bottom)]/(1+10^[(Log IC50−X)·Hill Slope], where Y is the % inhibition at the inhibitor concentration, X, “Bottom” is the lowest inhibition value, i.e., 0%, “Top” is the maximum inhibition value, i.e., 100%, and the “Hill Slope” describes the slope of the sigmoidal curve between the “Bottom” and “Top” values. The curve fitting was conducted with XLfit (ver. 5.5.0.5, ID Business Solutions Limited) or internally developed software.
(§3) Table 2 lists in vitro biological assay data (IL-1β and TNF-α) for the compounds shown in the examples. These assays are described in the section entitled Biological Activity, above.

[2] = system: NF-κB pathway; assay: TNF-α assay (THP-1 cells differentiated to macrophages with IFN-γ, NF-κB pathway activated with LPS; ELISA); assay type: cell-based, Human; settings: Homo sapiens, THP-1, THP-1 macrophages, compound 30 min, 50 ng/mL LPS 3 hours
Experimental: as §1
TNF-α Assay (Reported as IC50)
Monocytic THP-1 cells (ATCC: TIB-202) were maintained in accordance with the provider's instructions in RPMI media (Life Technologies, Cat #A10491-01); RPMI was supplemented with 10% heat inactivated fetal bovine serum (Hyclone Cat #SH30396.03). The cells were differentiated into macrophages by the addition of 25 ng/mL IFN-γ for 24 hours at 37 °C/5% CO2. Media was exchanged with fresh media with no FBS. The cells were plated at 40,000 cells per well in 384-well flat-bottom cell culture plates (Costar 3764) containing compounds (added in 1:1000) in a 1:3.16 serial dilution series in DMSO and were incubated for 30 minutes at 37 °C/5% CO2. The NF-κB pathway was activated with the addition of 50 ng/mL LPS and the cells were incubated for 3 hours at 37 °C/5% CO2. At the end of the incubation period, supernatant ([…]) was removed, and […] were monitored using an ELISA (Human TNF-α ELISA, R&D systems, Cat #DY210) according to the manufacturer's instructions.
as §2, §3

T1 sequence (Q96P20 whole entry): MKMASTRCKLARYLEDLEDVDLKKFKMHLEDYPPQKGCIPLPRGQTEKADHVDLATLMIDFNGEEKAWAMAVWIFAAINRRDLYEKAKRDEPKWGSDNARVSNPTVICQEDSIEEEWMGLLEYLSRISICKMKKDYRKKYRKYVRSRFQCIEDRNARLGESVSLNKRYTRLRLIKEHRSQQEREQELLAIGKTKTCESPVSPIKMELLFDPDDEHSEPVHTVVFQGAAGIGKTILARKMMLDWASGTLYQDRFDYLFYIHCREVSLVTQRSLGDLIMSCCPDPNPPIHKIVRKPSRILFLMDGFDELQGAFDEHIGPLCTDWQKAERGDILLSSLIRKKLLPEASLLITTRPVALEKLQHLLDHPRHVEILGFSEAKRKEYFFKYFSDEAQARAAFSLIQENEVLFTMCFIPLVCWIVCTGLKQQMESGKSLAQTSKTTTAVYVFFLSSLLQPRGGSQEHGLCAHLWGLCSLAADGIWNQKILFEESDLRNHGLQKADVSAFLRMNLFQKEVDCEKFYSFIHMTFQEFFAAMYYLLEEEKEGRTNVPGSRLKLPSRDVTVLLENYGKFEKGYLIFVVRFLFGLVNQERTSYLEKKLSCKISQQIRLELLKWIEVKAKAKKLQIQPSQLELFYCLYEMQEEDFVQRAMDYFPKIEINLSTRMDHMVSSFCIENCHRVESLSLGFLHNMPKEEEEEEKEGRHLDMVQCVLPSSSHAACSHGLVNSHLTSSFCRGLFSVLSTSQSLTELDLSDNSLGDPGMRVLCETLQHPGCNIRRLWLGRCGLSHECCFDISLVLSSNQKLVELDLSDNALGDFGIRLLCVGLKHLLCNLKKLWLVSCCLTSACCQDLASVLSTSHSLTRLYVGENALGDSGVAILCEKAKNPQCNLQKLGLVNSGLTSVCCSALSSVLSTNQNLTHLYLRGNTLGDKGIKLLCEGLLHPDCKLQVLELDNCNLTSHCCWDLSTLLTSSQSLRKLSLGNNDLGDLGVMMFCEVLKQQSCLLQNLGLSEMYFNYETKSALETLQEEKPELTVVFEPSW

| Compound | IC50 [1] [nM] | IC50 [2] [nM] |
| --- | --- | --- |
| Cc1cc(C)c(-n2cc3sc(NC4CC5(CC(O)C5)C4)nc3n2)c(O)c1 (stereo not shown) [Example 30, 6-{[2-(2-hydroxy-4,6-dimethylphenyl)-2H-pyrazolo[3,4-d][1,3]thiazol-5-yl]amino}spiro[3.3]heptan-2-ol] | 830 | > 10000 |
| Cc1cc(C)c(-n2cc3sc(NC4CCN(C)C4=O)nc3n2)c(O)c1 (stereo not shown) [Example 103, 3-{[2-(2-hydroxy-4,6-dimethylphenyl)-2H-pyrazolo[3,4-d][1,3]thiazol-5-yl]amino}-1-methylpyrrolidin-2-one] | 810 | > 30000 |
| CCC(O)CNc1nc2nn(-c3c(C)cc(C)cc3O)cc2s1 (stereo not shown) [Example 83, 2-{5-[(2-hydroxybutyl)amino]-2H-pyrazolo[3,4-d][1,3]thiazol-2-yl}-3,5-dimethylphenol] | 820 | > 30000 |
| CC(=O)N1CCCC(Nc2nc3nn(-c4c(C)cc(C)cc4O)cc3s2)C1 (stereo not shown) [Example 108, 1-(3-{[2-(2-hydroxy-4,6-dimethylphenyl)-2H-pyrazolo[3,4-d][1,3]thiazol-5-yl]amino}piperidin-1-yl)ethan-1-one] | 610 | > 30000 |
| Cc1cc(C)c(-n2cc3sc(N(C)C)nc3n2)c(O)c1 [Example 49, 2-[5-(dimethylamino)-2H-pyrazolo[3,4-d][1,3]thiazol-2-yl]-3,5-dimethylphenol] | 1300 | > 30000 |
| Cc1cc(C)c(-n2cc3sc(N[C@H]4CCN(C)C(=O)C4)nc3n2)c(O)c1 [Example 136, (4S)-4-{[2-(2-hydroxy-4,6-dimethylphenyl)-2H-pyrazolo[3,4-d][1,3]thiazol-5-yl]amino}-1-methylpiperidin-2-one] | 3300 | > 30000 |
| COC(=O)N1CCCC(Nc2nc3nn(-c4c(C)cc(C)cc4O)cc3s2)C1 (stereo not shown) [Example 110, methyl 3-{[2-(2-hydroxy-4,6-dimethylphenyl)-2H-pyrazolo[3,4-d][1,3]thiazol-5-yl]amino}piperidine-1-carboxylate] | 990 | > 30000 |
| Cc1cc(C)c(-n2cc3sc(N[C@@H]4CN(C)C[C@H]4F)nc3n2)c(O)c1 [Example 79, 2-(5-{[(3R,4R)-4-fluoro-1-methylpyrrolidin-3-yl]amino}-2H-pyrazolo[3,4-d][1,3]thiazol-2-yl)-3,5-dimethylphenol] | 1100 | > 30000 |
| Cc1cc(C)c(-n2cc3sc(N[C@H]4CCOC4)nc3n2)c(O)c1 [Example 158, 3,5-dimethyl-2-(5-{[(3S)-oxolan-3-yl]amino}-2H-pyrazolo[3,4-d][1,3]thiazol-2-yl)phenol] | 660 | > 30000 |
| CO[C@H]1C[C@@H](Nc2nc3nn(-c4c(C)cc(C)cc4O)cc3s2)CN(C)C1 [Example 19, 2-(5-{[(3R,5S)-5-methoxy-1-methylpiperidin-3-yl]amino}-2H-pyrazolo[3,4-d][1,3]thiazol-2-yl)-3,5-dimethylphenol] | 5400 | > 30000 |
| COCCN(C)c1nc2nn(-c3c(C)cc(C)cc3O)cc2s1 [Example 61, 2-{5-[(2-methoxyethyl)(methyl)amino]-2H-pyrazolo[3,4-d][1,3]thiazol-2-yl}-3,5-dimethylphenol] | 2000 | > 10000 |

The next compounds have a lower IC50 [1] than those just listed; values first:

| IC50 [1] [nM] | IC50 [2] [nM] | Compound |
| --- | --- | --- |
| 3.6 | > 30000 | Cc1cc(C)c(-n2cc3sc(N[C@@H]4CCCN(C)C4)nc3n2)c(O)c1 [Example 4, 3,5-dimethyl-2-(5-{[(3R)-1-methylpiperidin-3-yl]amino}-2H-pyrazolo[3,4-d][1,3]thiazol-2-yl)phenol] |
| 280 | > 10000 | Cc1cc(C)c(-n2cc3sc(NCC(C)(F)F)nc3n2)c(O)c1 [Example 139, 2-{5-[(2,2-difluoropropyl)amino]-2H-pyrazolo[3,4-d][1,3]thiazol-2-yl}-3,5-dimethylphenol] |
| 94 | > 30000 | Cc1cc(C)c(-n2cc3sc(N[C@@H]4C[C@H](F)CN(C)C4)nc3n2)c(O)c1 [Example 179, 2-(5-{[(3R,5S)-5-fluoro-1-methylpiperidin-3-yl]amino}-2H-pyrazolo[3,4-d][1,3]thiazol-2-yl)-3,5-dimethylphenol] |
| 550 | > 30000 | Cc1cc(C)c(-n2cc3sc(N[C@H]4COC[C@@H]4F)nc3n2)c(O)c1 (single isomer, unassigned) [Example 142, 2-(5-{[(3R,4S)-4-fluorooxolan-3-yl]amino}-2H-pyrazolo[3,4-d][1,3]thiazol-2-yl)-3,5-dimethylphenol or 2-(5-{[(3S,4R)-4-fluorooxolan-3-yl]amino}-2H-pyrazolo[3,4-d][1,3]thiazol-2-yl)-3,5-dimethylphenol (tR1)] |
| 340 | > 30000 | Cc1cc(C)c(-n2cc3sc(N[C@H]4CN(C(=O)C5(O)CC5)C[C@@H]4F)nc3n2)c(O)c1 (racemic) [Example 124, racemic mixture of [(3R,4R)-3-fluoro-4-{[2-(2-hydroxy-4,6-dimethylphenyl)-2H-pyrazolo[3,4-d][1,3]thiazol-5-yl]amino}pyrrolidin-1-yl](1-hydroxycyclopropyl) methanone and [(3S,4S)-3-fluoro-4-{[2-(2-hydroxy-4,6-dimethylphenyl)-2H-pyrazolo[3,4-d][1,3]thiazol-5-yl]amino}pyrrolidin-1-yl](1-hydroxycyclopropyl)methanone] |
| 440 | > 30000 | CC(=O)NCCNc1nc2nn(-c3c(C)cc(C)cc3O)cc2s1 [Example 38, N-(2-{[2-(2-hydroxy-4,6-dimethylphenyl)-2H-pyrazolo[3,4-d][1,3]thiazol-5-yl]amino}ethyl)acetamide] |
| 540 | > 10000 | Cc1cc(C)c(-n2cc3sc(NC4CCCC(O)C4)nc3n2)c(O)c1 (stereo not shown) [Example 29, 2-{5-[(3-hydroxycyclohexyl)amino]-2H-pyrazolo[3,4-d][1,3]thiazol-2-yl}-3,5-dimethylphenol] |
| 90 | > 10000 | COc1cc(C)c(-n2cc3sc(N[C@H]4CN(C)C[C@@H]4F)nc3n2)c(O)c1 [Example 135, 2-(5-{[(3S,4S)-4-fluoro-1-methylpyrrolidin-3-yl]amino}-2H-pyrazolo[3,4-d][1,3]thiazol-2-yl)-5-methoxy-3-methylphenol] |
| 340 | > 30000 | CCNc1nc2nn(-c3c(C)cc(C)cc3O)cc2s1 [Example 181, 2-[5-(ethylamino)-2H-pyrazolo[3,4-d][1,3]thiazol-2-yl]-3,5-dimethylphenol] |
| 59 | > 30000 | Cc1cc(C)c(-n2nc3nc(N[C@@H]4C[C@@H](F)CN(C)C4)sc3c2C)c(O)c1 [Example 70, 2-(5-{[(3R,5R)-5-fluoro-1-methylpiperidin-3-yl]amino}-3-methyl-2H-pyrazolo[3,4-d][1,3]thiazol-2-yl)-3,5-dimethylphenol] |
| 25 | > 30000 | Cc1cc(C(F)F)cc(O)c1-n1cc2sc(N[C@@H]3C[C@@H](F)CN(C)C3)nc2n1 [Example 13, 5-(difluoromethyl)-2-(5-{[(3R,5R)-5-fluoro-1-methylpiperidin-3-yl]amino}-2H-pyrazolo[3,4-d][1,3]thiazol-2-yl)-3-methylphenol] |
| 68 | > 10000 | Cc1cc(C)c(-n2cc3sc(N[C@@H]4CCCN(CC(F)F)C4)nc3n2)c(O)c1 [Example 35, 2-(5-{[(3R)-1-(2,2-difluoroethyl)piperidin-3-yl]amino}-2H-pyrazolo[3,4-d][1,3]thiazol-2-yl)-3,5-dimethylphenol] |
